From patent US5260425A, “Anthracycline derivatives having cytostatic activity” (priority 1988, dated 1993)
Values after ≈ are worked out from the molar mass of the structure shown. Like-named read-outs stand apart in the source and are kept apart here.

Legend:
[1] = Determination of the indicative toxicity; settings: mouse, in vivo, ip; 3xip,q3d (three intraperitoneal administrations, 3 days interval); survival day 14
Method: To determine the indicative toxicity, NMRI mice receive an intraperitoneal injection of various doses of the test substance dissolved in 0.5 ml of 5% strength glucose solution on day 0. Control groups receive merely 0.5 ml of 5% strength glucose solution. 5 mice are used for each concentration of the test substance. The number of mice surviving on day 14 is determined, and from this the LD5, LD50 and LD95 are determined by the Litchfield-Wilcoxon method. The toxicity (LD50 (mg/kg)) of the compounds described here is summarized in Table 3 by comparison with adriamycin.

[2] = test system: sensitive and resistant L1210 leukemia cells; assay: Proliferation test (MTT reduction), cross-resistance to doxorubicin/adriamycin in vitro; assay type: cell-based, mouse
Method: L1210, A 549 or HT 29 in the exponential phase of growth are incubated in a cell density of 5×10^3 cells/ml in RPMI 1640 in a 96-well microtiter plate with various concentrations of the test substance at 37° C., 5% CO2 and 95% relative humidity for 72 h. Control experiments receive merely growth medium in place of the test substance. Quadruplicate determinations are set up for each test substance and for the control. After incubation for 65 h, 50 μl of an MTT solution (2.5 mg/ml; MTT=3-(4,5-dimethylthiazol-2-yl)-2,5-diphenyltetrazoliumbromide) in phosphate-buffered saline) are added. MTT is reduced to a dark red insoluble formazan dyestuff in the presence of live cells. This reaction is complete after 7 h (L1210 cells) or after 24 h (A 549, HT 29 cells), and the supernatant medium is carefully removed by aspiration. The insoluble dyestuff is dissolved by addition of 100 μl of DMSO (dimethyl sulfoxide) and the extinction of the resulting solution at a wavelength of 492 nm is then measured for each well in a multiscan 340 CC photometer from Flow.
The ratio of the extinctions for treated and untreated cells provides a dose-effect plot from which the concentration which just kills 50% of the cells (IC50) can be read off. The coefficient of variation for repeat investigations is less than 15%.
The cross-resistance between the particular test compound and doxorubicin as standard compound is determined with the aid of the MTT test (see above for method) on sensitive and resistant L1210 leukemia cells.
The resistant cell line was established by incubation of a sensitive subline with the reference compound in concentrations which increased stepwise.
The IC50 of the test compound on the resistant subline related to the IC50 of the sensitive subline provides both the degree of resistance for the test Compound (DR(T)) and that for the reference compound (DR(R)) in accordance with the formula [formula]
In addition, the degree of cross-resistance (DCR) for the test compound is calculated in accordance with the formula [formula]
In the case where the loss of effect of the test compound on the resistant line in relation to the sensitive line is greater than that of the reference compound it is possible for the degree of cross-resistance to be above 100%.

[3] = test system: L1210 mouse leukemia cells; assay: Formation of colonies of L1210 leukemia cells in soft agar (cytotoxicity in vitro); assay type: cell-based; settings: for IC50: Mus musculus
Method: The cytostatic activity of the compounds according to the invention has been tested using L1210 mouse leukemia cells. Employed for this purpose was the formation of colonies of L1210 leukemia cells in agar plates. This method is used to detect the effect of the test substances on the growth behavior of the cells over 1 hour or over several generations. In this connection, with a cell cycle time of 10-12 hours about 14 consecutive generations are observed in the 7 days the test lasts. In this test, the substances having cytostatic activity according to the invention bring about a reduction in the number of colonies to be observed by comparison with an untreated control sample.
Procedure for determining the formation of colonies of L1210 leukemia cells in soft agar
500 leukemia cells per plate were incubated with various concentrations of the test substance at 37° C. for 1 hour. The cells were then washed twice with McCoy5A medium and finally, after addition of 0.3% agar, poured into Petri dishes. Controls were incubated only with fresh medium. In place of the incubation for one hour, in some cases various concentrations and test substances were mixed with the upper agar layer in order in this way to achieve continuous exposure of the cells throughout the incubation time. After the agar had solidified, the plates were incubated in an incubator at 37° C. for 7 days (5% by volume CO2, 95% relative humidity). The number of colonies which had been produced with a diameter of more than 60 μm was then counted. The results have been reported as the number of colonies in treated agar plates as a percentage of the untreated control. The IC50 was determined as a measure of the activity of the substance from the dose-effect plot obtained in this way. The results for the compounds described herein, by comparison with adriamycin, are compiled in Table 1.

L1210 leukemia = assay: In vivo activity on L1210 leukemia of the mouse (antitumor activity T/C); settings: Mus musculus
Method: Ascites fluid is removed from DBA2 mice (female, 18-20 g) under sterile conditions 7 days after inoculation of tumor cells. The ascites is washed three times with PBS (phosphate-buffered saline), counted and adjusted to a cell count of 10^6 in 0.2 ml of PBS.
10^6 cells, suspended in 0.2 ml of PBS, are then injected intraperitoneally into DBF1 mice (female, 18-20 g). 6 animals per group are used for each substance concentration and as controls.
a) The animals are weighed on days 1 and 5 after injection of the test substance. A weight loss of more than 20% on day 5 is regarded as an indicator of a toxic effect of the substance.
b) At the end of the experiment (death of all animals or surviving animals on day 60) the mean survival time of the animals in the particular groups is determined as long as at least 65% of the animals were still alive on day 5 of the experiment. The mean survival time is determined only for animals which die during the course of the experiment. Long-term survivors (LTS) are not included in this calculation and are reported separately.
The antitumor activity (T/C) for the particular substance concentration is determined from the mean survival time (MSTT) in the treated groups and in the control groups (MSTC) as a percentage of the untreated controls in accordance with the following formula: [formula]
The T/C values and the treatment regimen employed in each case are compiled in Table 3, together with the indicative toxicity. T/C values greater than 125% are regarded as an indicator of a significant antitumor activity of the test substance.

[4] = 168 h, continuous incubation, 7 days, L1210 colonies in agar, read-out: IC50, continuous incubation
[5] = 1 h incubation, then 7 days, L1210 colonies in agar, read-out: IC50, 1 h incubation
[6] = 1 h incubation, then 7 days, L1210 colonies in agar
[7] = continuous incubation, 7 days, L1210 colonies in agar
[8] = L1210, 168 h, read-out: IC50, continuous incubation, continuous incubation, 7 days, L1210 colonies in agar
[9] = L1210, read-out: IC50, 1 h incubation, 1 h incubation, then 7 days, L1210 colonies in agar

| SMILES | LD50 at 336 h [1] [mg/kg] | IC50 [3, 4] [µg/mL] | IC50 [3, 5] [µg/mL] | further results |
| --- | --- | --- | --- | --- |
| CC[C@@]1(O)C[C@H](O[C@H]2C[C@H](N(C)Cc3ccncc3)[C@H](O)[C@H](C)O2)c2c(O)c3c(c(O)c2[C@H]1O)C(=O)c1cccc(O)c1C3=O [Compound 4, 7-O-(3'-N-Methyl-3'-N-(4-picolyl)-alpha-L-daunosaminyl)-β-rhodomycinone] | 2.5 to 5 | 0.023 (≈ 0.0371 µM) | 0.1 (≈ 0.161 µM) | Cross-resistance to doxorubicin (in words) ([2]; L1210, MTT, in vitro): not cross-resistant to doxorubicin; Degree of resistance of the cell ([2]; MTT, 3d, IC50 resistant subline related to IC50 sensitive subline): 1.6; Cross-resistance to adriamycin (degree of cross-resistance) ([2]; MTT, 3d, adriamycin = 100.0): 0.2% |
| CC[C@@]1(O)C[C@H](O[C@H]2C[C@H](N(C)CC3CO3)[C@H](O)[C@H](C)O2)c2c(O)c3c(c(O)c2[C@H]1O)C(=O)c1cccc(O)c1C3=O (single isomer, unassigned) [Compound 8a, 7-O-(3'-N-Glycidyl-3'-N-methyl-alpha-L-daunosaminyl)-β-rhodomycinone] | – | – | – | IC50, 1 h incubation [3, 6]: 0.0034 µg/mL (≈ 0.00581 µM); IC50, continuous incubation [3, 7]: 0.001 µg/mL (≈ 0.00171 µM) |
| CCOC(=O)CN(C)[C@H]1C[C@H](O[C@H]2C[C@](O)(CC)[C@H](O)c3c(O)c4c(c(O)c32)C(=O)c2c(O)cccc2C4=O)O[C@@H](C)[C@H]1O [Compound 10, 7-O-(3'-N-(Ethoxycarbonylmethyl)-3'-N-methyl-alpha-L-daunosaminyl)-β-rhodomycinone] | 10 to 25 | 0.1 (≈ 0.162 µM) | 0.06 (≈ 0.0975 µM) | response vs control in vivo at 12.7 mg/kg (L1210 leukemia; L1210, iv, 3xiv,q3d, dose 12.7 mg/kg, % of the control): 132% |
| CC[C@@]1(O)C[C@H](O[C@H]2C[C@H](N(C)CC3CO3)[C@H](O)[C@H](C)O2)c2c(O)c3c(c(O)c2[C@H]1O)C(=O)c1cccc(O)c1C3=O (stereo partly drawn) [Compound 8m, 7-O-(3'-N-Glycidyl-3'-N-methyl-alpha-L-daunosaminyl)-β-rhodomycinone] | – | – | – | IC50 [3, 8]: 0.002 µg/mL (≈ 0.00342 µM); IC50 [3, 9]: 0.0072 µg/mL (≈ 0.0123 µM); response vs control in vivo at 0.47 mg/kg (L1210 leukemia; L1210, ip, read-out: T/C, L1210-leukemia in vivo): 114% |
| CC[C@@]1(O)C[C@H](O[C@H]2C[C@H](N(C)CCO)[C@H](O)[C@H](C)O2)c2c(O)c3c(c(O)c2[C@H]1O)C(=O)c1cccc(O)c1C3=O [Compound 3, -O-(3'-N-Hydroxyethyl-3'-N-methyl-alpha-L-daunosaminyl)-β-rhodomycinone] | 0.2 to 1 | 0.02 (≈ 0.0349 µM) | 0.044 (≈ 0.0767 µM) | response vs control in vivo at 1.13 mg/kg (L1210 leukemia; L1210, iv, 3xiv,q3d, dose 1.13 mg/kg, % of the control): 108% |
| C=CCN(C)[C@H]1C[C@H](O[C@H]2C[C@](O)(CC)[C@H](O)c3c(O)c4c(c(O)c32)C(=O)c2c(OC)cccc2C4=O)O[C@@H](C)[C@H]1O [Compound 17, 7-O-(3'-N-Allyl-3'-N-methyl-alpha-L-daunosaminyl)-4-O-methyl-β-rhodomycinone] | – | 0.036 (≈ 0.0617 µM) | > 1 | – |
| C=CCN(C)[C@H]1C[C@H](O[C@H]2C[C@](O)(C(C)=O)Cc3c(O)c4c(c(O)c32)C(=O)c2c(OC)cccc2C4=O)O[C@@H](C)[C@H]1O [Compound 15, 7-O-(3'-N-Allyl-3'-N-methyl-alpha-L-daunosaminyl)-daunomycinone] | – | – | – | IC50 [3, 8]: 0.008 µg/mL (≈ 0.0138 µM); IC50 [3, 9]: > 1 µg/mL |
| CC[C@@]1(O)C[C@H](O[C@H]2C[C@H](N(C)CC(N)=O)[C@H](O)[C@H](C)O2)c2c(O)c3c(c(O)c2[C@H]1O)C(=O)c1cccc(O)c1C3=O [Compound 7, 7-O-(3'-N-Acetamido-3'-N-methyl-alpha-L-daunosaminyl)-β-rhodomycinone] | 2 to 5 | 0.084 (≈ 0.143 µM) | 0.24 (≈ 0.409 µM) | response vs control in vivo at 11.2 mg/kg (L1210 leukemia; L1210, iv, 3xiv,q3d, dose 11.2 mg/kg, % of the control): 142% |
| CC[C@@]1(O)C[C@H](O[C@H]2C[C@H](N(C)Cc3cccs3)[C@H](O)[C@H](C)O2)c2c(O)c3c(c(O)c2[C@H]1O)C(=O)c1cccc(O)c1C3=O [Compound 13, 7-O-(3'-N-Methyl-3'-N-(2-thenyl)-alpha-L-daunosaminyl)-β-rhodomycinone] | – | 0.034 (≈ 0.0543 µM) | 0.38 (≈ 0.607 µM) | – |
| CC[C@@]1(O)C[C@H](O[C@H]2C[C@H](N(C)CC(C)=O)[C@H](O)[C@H](C)O2)c2c(O)c3c(c(O)c2[C@H]1O)C(=O)c1cccc(O)c1C3=O [Compound 18, 7-O-(3'-N-Acetonyl-3'-N-methyl-alpha-L-daunosaminyl)-β-rhodomycinone] | – | 0.018 (≈ 0.0307 µM) | 0.073 (≈ 0.125 µM) | – |
| CC[C@@]1(O)C[C@H](O[C@H]2C[C@H](N(C)CC3CO3)[C@H](O)[C@H](C)O2)c2c(O)c3c(c(O)c2[C@H]1O)C(=O)c1cccc(O)c1C3=O (single isomer, unassigned) [Compound 8b, 7-O-(3'-N-Glycidyl-3'-N-methyl-alpha-L-daunosaminyl)-β-rhodomycinone] | – | – | – | IC50, 1 h incubation [3, 6]: 0.01 µg/mL (≈ 0.0171 µM); IC50, continuous incubation [3, 7]: 0.003 µg/mL (≈ 0.00512 µM) |
| CC[C@@]1(O)C[C@H](O[C@H]2C[C@H](N(C)Cc3ccccn3)[C@H](O)[C@H](C)O2)c2c(O)c3c(c(O)c2[C@H]1O)C(=O)c1cccc(O)c1C3=O [Compound 5, 7-O-(3'-N-Methyl-3'-N-(2-picolyl)-alpha-L-daunosaminyl)-β-rhodomycinone] | – | 0.038 (≈ 0.0612 µM) | 0.24 (≈ 0.387 µM) | – |
| C=CCN(C)[C@H]1C[C@H](O[C@H]2C[C@](O)(CC)[C@H](O)c3c(O)c4c(c(O)c32)C(=O)c2c(O)ccc(O)c2C4=O)O[C@@H](C)[C@H]1O [Compound 9, 7-O-(3'-N-Allyl-3'-N-methyl-alpha-L-daunosaminyl)-β-isorhodomycinone] | > 6 | 0.008 (≈ 0.0137 µM) | 0.5 (≈ 0.854 µM) | – |
